Assay results reported in the NIST ThermoML archive (doi:10.1021/je700371w).
Numbers after ± are expanded uncertainties.

Conditions: Liquid, Closed cell (Static) method

O [water]
Conditions	vapor or sublimation pressure [kPa]
297.95 K	3.14 ± 0.07
303.85 K	4.41 ± 0.07
309.05 K	5.93 ± 0.07
313.25 K	7.44 ± 0.08
318.75 K	9.86 ± 0.08
322.95 K	12.2 ± 0.09
329.35 K	16.71 ± 0.1
333.45 K	20.18 ± 0.12
338.55 K	25.51 ± 0.14
342.85 K	30.8 ± 0.16
348.25 K	38.66 ± 0.19
353.65 K	48.42 ± 0.22
358.35 K	58.2 ± 0.26
362.95 K	69.67 ± 0.3
368.45 K	85.35 ± 0.34
371.75 K	96.28 ± 0.38
373.25 K	101.56 ± 0.42
375.75 K	111.23 ± 0.44

Cc1cccnc1N [2-amino-3-methylpyridine]
Conditions	vapor or sublimation pressure [kPa]
328.7 K	0.098 ± 0.006
329.84 K	0.108 ± 0.006
336.23 K	0.165 ± 0.006
344.13 K	0.271 ± 0.007
349.18 K	0.368 ± 0.007
354.89 K	0.515 ± 0.008
357.64 K	0.598 ± 0.009
359.93 K	0.69 ± 0.06
363.55 K	0.82 ± 0.06
368.61 K	1.08 ± 0.06
374.67 K	1.47 ± 0.06
387.23 K	2.67 ± 0.06
390.85 K	3.13 ± 0.06
398.46 K	4.32 ± 0.06
405.57 K	5.82 ± 0.07
411.35 K	7.34 ± 0.07
415.63 K	8.67 ± 0.07
421.5 K	10.75 ± 0.08
425.85 K	12.61 ± 0.08
428.75 K	13.95 ± 0.08
431.43 K	15.29 ± 0.09
435.66 K	17.74 ± 0.09
439.42 K	20.12 ± 0.1
443.51 K	23.01 ± 0.1
447.94 K	26.5 ± 0.11
448.95 K	27.3 ± 0.11
450.76 K	28.88 ± 0.12
451.84 K	29.81 ± 0.12
454.19 K	32.09 ± 0.13
455.25 K	33.15 ± 0.13
456.78 K	34.61 ± 0.14
457.95 K	36.08 ± 0.14
460.15 K	38.48 ± 0.14
461.72 K	40.22 ± 0.14
469.63 K	50.38 ± 0.18
478.22 K	63.87 ± 0.21
484.84 K	76.42 ± 0.24
490.45 K	87.65 ± 0.27
495.13 K	99.74 ± 0.25
496.05 K	101.44 ± 0.28
497.73 K	105.38 ± 0.31
498.8 K	108.53 ± 0.33
499.88 K	111.35 ± 0.32
